Tests used:
[1] = tested on: several other cancer cell types; parameters: method as in PMID 25130169, PMID 27222242, PMID 10552768, PMID 28726768, PMID 26911804; conditions: read-out: IC50 for growth of several other cancer cell types; cited from earlier work
[2] = tested on: nuclear AR in LNCaP cells; test: Cell fractionation, AR nuclear localization, LNCaP; type: cell-based, human; conditions: bergamottin 10μM, with and without DHT induction
Method: (§1) Cells were plated at 25–30% confluence when maintained in complete media. When the cells required DHT tretment and media replacement to charcoal stripped serum media (CSSM) they were plated at 35–40% confluence. Bergamottin is dissolved in DMSO (vehicle control) and the amount of DMSO at each treatment group was kept constant. After the completion of the treatment cells were washed in phosphate buffer (PBS) containing 2mMEDTA and 2mM EGTA and lysed in RIPA buffer (50 mM TRIS, 150 mM NaCl, 1% NP40, 0.5% sodium deoxycholate, 0.1% SDS, 2mM EDTA, 2mM EGTA) supplemented with protease and phosphatase inhibitors for total protein isolation. Protein estimation was performed using micro BCA assay and equal protein amponts were loaded on SDS-PAGE gels for western analysis. GAPDH was used as an internal control for total protein. Infrared fluorescent-labeled secondary antibodies were used for detection using Odyssey CLx. The bands were quantified using Odyssey software, which calculates pixel density and automatically takes an area adjacent to each band for background corrections.
Nuclear and cytoplasmic cell fractionation was prepared using NE-PER Nuclear and cytoplasmic extraction kit from Thermo Scientific (Cat no.78833) and manufacturer’s instructions were followed. […]

[3] = tested on: PARP cleavage in MDAPCa2b cells; test: Western blot of PARP cleavage, MDAPCa2b; type: cell-based, human; conditions: 5 and 10 μM for 96 hrs. and 20 μM for 48 hrs.
Method: as §1
(§2) Cells were plated in complete media without antibiotics on poly D-lysine-coated plates (80,000 cells per 6 well). […]

[4] = tested on: PARP cleavage in LNCaP cells; test: Western blot of PARP cleavage, LNCaP; type: cell-based, human; conditions: 5 and 10 μM for 96 hrs. and 20 μM for 48 hrs.
Method: as §1, §2

[5] = tested on: cell cycle regulating proteins in LNCaP cells; test: Western blot of cell cycle regulating proteins, LNCaP; type: cell-based, human; conditions: for CDK2, normalized fold change after GAPDH calibration / CDK4, normalized fold change after GAPDH calibration / CDK6, normalized fold change after GAPDH calibration / Cyclin A, normalized fold change after GAPDH calibration / Cyclin B1, normalized fold change after GAPDH calibration / Cyclin D1, normalized fold change after GAPDH calibration / Cyclin D3, normalized fold change after GAPDH calibration / Cyclin E, normalized fold change after GAPDH calibration / Myt 1, normalized fold change after GAPDH calibration / P-Wee1, normalized fold change after GAPDH calibration / P-cdc2, normalized fold change after GAPDH calibration / P-histone H3, normalized fold change after GAPDH calibration / p21, normalized fold change after GAPDH calibration / p27, normalized fold change after GAPDH calibration: LNCAP, 48 hrs., 0 μM = 100
Method: as §1, with “corrections. […]” for “corrections.”

MDAPCa2b cells = test: Clonogenic assay, MDAPCa2b; type: cell-based, human; conditions: 5μM and 10μM, 3 weeks
Method: For clonogenic assay, cells were plated in 6 well plates (10,000 cells) for 48 h and then treated with indicated amounts of bergamottin and vehicle control (DMSO). After 3 weeks, the colonies were fixed, stained (0.75% crystal violet, 50% ethanol and 1.75% formaldehyde) and counted. The assay was repeated three times.

[6] = tested on: AR nuclear localization in MDAPCa2b cells; test: Confocal microscopy of AR nuclear localization, MDAPCa2b; type: cell-based, human; conditions: bergamottin 10μM, versus DMSO
Method: Cells were seeded into 35 mm Glass bottom dish (Cellvis catalog# D35C4-20-1.5-N) in complete media; media was changed to CSSM prior to DHT treatment. The cells were fixed in 4% paraformaldehyde for 20 minutes and permeabilized using permeabilizing buffer (0.2% Tween 20 in PBS) for 5 minutes. Cells were blocked using 10% goat serum diluted in permeabilizing buffer with 1% BSA for 15 minutes. Primary antibodies were diluted at 1:100 in staining buffer (1% BSA in PBS) and incubated for 2 hours at room temperature. Cells were washed three times (5 minutes each) in PBS. Secondary antibodies, TRITC-conjugated Donkey Anti-rabbit (711-025-152) was from Jackson immuno research, West Grove, PA was diluted at 1:100 in staining buffer and incubated for 60 minutes at room temperature. Cells were washed three times (5 minutes) in PBS and stained with 1 μg/mL DAPI (4’, 6-diamidino-2-phenylindole) in PBS for 5 minutes at room temperature. The cells were stored in PBS at 4°C until imaging was completed.
Cells were imaged using confocal laser scanning microscopy on a Nikon A1R using a galvano scanner and a 60× Apo-TIRF oil immersion objective. NIS Elements software form Nikon was used for recording the data.

[7] = LNCaP, low dose 5 and 10 μM, 96 hrs.

SMILES: CC(C)=CCC/C(C)=C/COc1c2ccoc2cc2oc(=O)ccc12 [bergamottin]
- IC50 [1]: 30 to 100 µM
- nuclear translocation of AR (cell fractionation) [2]: inhibited nuclear translocation of AR
- PARP cleavage [3]: showed apoptosis (cleaved PARP)
- PARP cleavage [4]: showed apoptosis (cleaved PARP)
- CDK2, normalized fold change after GAPDH calibration ([5]; Bergamottin 20 μM): 62
- CDK4, normalized fold change after GAPDH calibration ([5]; Bergamottin 20 μM): 46
- CDK6, normalized fold change after GAPDH calibration ([5]; Bergamottin 20 μM): 60
- Cyclin A, normalized fold change after GAPDH calibration ([5]; Bergamottin 20 μM): 80
- Cyclin B1, normalized fold change after GAPDH calibration ([5]; Bergamottin 20 μM): 50
- Cyclin D1, normalized fold change after GAPDH calibration ([5]; Bergamottin 20 μM): 43
- Cyclin D3, normalized fold change after GAPDH calibration ([5]; Bergamottin 20 μM): 68
- Cyclin E, normalized fold change after GAPDH calibration ([5]; Bergamottin 20 μM): 109
- Myt 1, normalized fold change after GAPDH calibration ([5]; Bergamottin 20 μM): 103
- P-Wee1, normalized fold change after GAPDH calibration ([5]; Bergamottin 20 μM): 63
- P-cdc2, normalized fold change after GAPDH calibration ([5]; Bergamottin 20 μM): 18
- P-histone H3, normalized fold change after GAPDH calibration ([5]; Bergamottin 20 μM): 294
- p21, normalized fold change after GAPDH calibration ([5]; Bergamottin 20 μM): 83
- p27, normalized fold change after GAPDH calibration ([5]; Bergamottin 20 μM): 112
- CDK2, normalized fold change after GAPDH calibration ([5]; Bergamottin 30 μM): 67
- CDK4, normalized fold change after GAPDH calibration ([5]; Bergamottin 30 μM): 30
- CDK6, normalized fold change after GAPDH calibration ([5]; Bergamottin 30 μM): 12
- Cyclin A, normalized fold change after GAPDH calibration ([5]; Bergamottin 30 μM): 55
- Cyclin B1, normalized fold change after GAPDH calibration ([5]; Bergamottin 30 μM): 44
- Cyclin D1, normalized fold change after GAPDH calibration ([5]; Bergamottin 30 μM): 12
- Cyclin D3, normalized fold change after GAPDH calibration ([5]; Bergamottin 30 μM): 44
- Cyclin E, normalized fold change after GAPDH calibration ([5]; Bergamottin 30 μM): 53
- Myt 1, normalized fold change after GAPDH calibration ([5]; Bergamottin 30 μM): 82
- P-Wee1, normalized fold change after GAPDH calibration ([5]; Bergamottin 30 μM): 37
- P-cdc2, normalized fold change after GAPDH calibration ([5]; Bergamottin 30 μM): 5
- P-histone H3, normalized fold change after GAPDH calibration ([5]; Bergamottin 30 μM): 35
- p21, normalized fold change after GAPDH calibration ([5]; Bergamottin 30 μM): 102
- p27, normalized fold change after GAPDH calibration ([5]; Bergamottin 30 μM): 183
- CDK4 level (western blot) [5, 7]: did not observe any significant change
- CDK6 level (western blot) [5, 7]: did not observe any significant change
- cdc-2 phosphorylation (western blot) [5, 7]: Decreased cdc-2 phosphorylation
- cyclin B1 level (western blot) [5, 7]: lower
- cyclin D1 level (western blot) [5, 7]: lower
- cyclin D3 level (western blot) [5, 7]: lower
- number of colonies (MDAPCa2b cells): significantly reduced the number of colonies
- active AR migration to the nucleus with DHT induction (confocal) [6]: significantly reduced

From publication PMC8476002, “Bergamottin a CYP3A inhibitor found in grapefruit juice inhibits prostate cancer cell growth by downregulating androgen receptor signaling and promoting G0/G1 cell cycle block and apoptosis” (PLoS ONE, 2021)
